Data published in PMC7646200 (Xenobiotica; the fate of foreign compounds in biological …, 2020).
“Also recorded” adds a separate entry of the source. Read-outs that look alike come from different tables or passages of the source.

Tests used:
[1] = system: sheep liver cytosol; test: Sulfonation of 7-hydroxycoumarin derivatives by sheep liver cytosol; settings: sheep liver cytosol; for Vmax: value (95 % confidence interval)
[2] = system: rabbit liver cytosol; settings: pH 7.4
[3] = system: rat liver cytosol; test: Sulfonation of 7-hydroxycoumarin derivatives by rat liver cytosol; settings: rat liver cytosol; for sulfonation efficiency, intrinsic clearance (Vmax/Km): rank among species; for Vmax: value (95 % confidence interval)
[4] = system: rat liver cytosol; settings: pH 7.4
[5] = system: mouse liver cytosol; settings: pH 7.4
[6] = system: dog liver cytosol; settings: for Km: pH 7.4
[7] = system: human liver cytosol; settings: pH 7.4
[8] = system: sheep liver cytosol; settings: pH 7.4
[9] = system: mouse liver cytosol; test: Sulfonation of 7-hydroxycoumarin derivatives by mouse liver cytosol; settings: for Vmax: mouse liver cytosol, value (95 % confidence interval); for sulfonation rate: 10 μM substrate
[10] = system: human liver cytosol; test: Sulfonation of 7-hydroxycoumarin derivatives by human liver cytosol; settings: human liver cytosol; value (95 % confidence interval)
[11] = system: pig liver cytosol; test: Sulfonation of 7-hydroxycoumarin derivatives by pig liver cytosol; settings: pig liver cytosol; value (95 % confidence interval)
[12] = system: pig liver cytosol; settings: pH 7.4
[13] = system: rabbit liver cytosol; test: Sulfonation of 7-hydroxycoumarin derivatives by rabbit liver cytosol; settings: rabbit liver cytosol; for sulfonation rate: 10 μM substrate; for Vmax: value (95 % confidence interval)
[14] = system: dog liver cytosol; test: Sulfonation of 7-hydroxycoumarin derivatives by dog liver cytosol; settings: for Vmax: value (95 % confidence interval); for intrinsic clearance (Vmax/Km): rank among species; for intrinsic clearance relative to the highest intrinsic clearance value: dog cytosol, highest value = 1 by rat cytosol
[15] = Sulfonation of 7-hydroxycoumarin derivatives by sheep liver cytosol; settings: female, sheep, liver cytosol, pH 7.4
[16] = Sulfonation of 7-hydroxycoumarin derivatives by mouse liver cytosol; settings: DBA/2N/Kuo, mouse, pH 7.4
[17] = Sulfonation of 7-hydroxycoumarin derivatives by human liver cytosol; settings: male, human, liver cytosol, pH 7.4
[18] = Sulfonation of 7-hydroxycoumarin derivatives by pig liver cytosol; settings: female, pig, liver cytosol, pH 7.4
[19] = Sulfonation of 7-hydroxycoumarin derivatives by rabbit liver cytosol; settings: female, Dutch belted, rabbit, liver cytosol, pH 7.4
[20] = Sulfonation of 7-hydroxycoumarin derivatives by dog liver cytosol; settings: both, Beagle, dog, liver cytosol, pH 7.4
[21] = Sulfonation of 7-hydroxycoumarin derivatives by rat liver cytosol; settings: male, Wistar, rat, pH 7.4
[22] = in vitro; settings: male, Wistar, rat, pH 7.4
[23] = system: liver cytosol of human, rat, mouse, rabbit, dog, pig and sheep; type: in vitro ADME; settings: for sulfonation rate: 10 μM substrate, compared among derivatives over all species

Row | Structure (SMILES) | Vmax [1] | sulfonation efficiency, intrinsic clearance (Vmax/Km) [3] | Vmax [3] | Km [5] | Vmax [9] | Vmax [10] | Vmax [11] | sulfonation rate [13] | Vmax [13] | Vmax ([14]; dog liver cytosol) | Km [15] | Km ([16]; liver cytosol) | sulfonation rate ([9]; male mouse liver cytosol) | Km [17] | Km [18] | Km [19] | intrinsic clearance (Vmax/Km) ([14]; dog liver cytosol) | Km [20] | Km ([21]; liver cytosol) | other results
1 | O=c1oc2cc(O)ccc2cc1-n1cncn1 [compound 14, 3-(1H-1,2,4-tirazol-1-yl)-7-hydroxycoumarin] | 220 (93–350) nmol/(min * g protein) | efficiently | 230 (200–260) nmol/(min * g protein) | 4.9 µM | 78 (69–88) nmol/(min * g protein) | 69 (55–84) nmol/(min * g protein) | 39 (13–65) nmol/(min * g protein) | Slow | 32 (25–39) nmol/(min * g protein) | 200 (180–220) nmol/(min * g protein) | – | – | – | – | – | – | – | – | – | Km [2]: 2.8 µM; Km [4]: 1.3 µM; Km [6]: 3.9 µM; Km [7]: 4.7 µM; Km [8]: 12 µM; Km [12]: 3 µM
2 | CCc1c(C)c2ccc(O)cc2oc1=O [compound 5, 3-ethyl-4-methyl-7-hydroxycoumarin] | 340 (220–460) nmol/(min * g protein) | – | No MM | – | 5.3 (3.8–6.8) nmol/(min * g protein) | 97 (76–120) nmol/(min * g protein) | 26 (12–40) nmol/(min * g protein) | – | 58 (21–95) nmol/(min * g protein) | 360 (260–460) nmol/(min * g protein) | 1.6 µM | 0.11 µM | Slow | 2.1 µM | 1.5 µM | 1.3 µM | highest | 0.45 µM | – | –
3 | O=c1ccc2ccc(O)cc2o1 [compound 1, 7-hydroxycoumarin, reference compound] | 250 (200–310) nmol/(min * g protein) | efficiently; also recorded: highest intrinsic clearance | 410 (360–460) nmol/(min * g protein) | – | 260 (210–320) nmol/(min * g protein) | 84 (26–140) nmol/(min * g protein) | 65 (29–100) nmol/(min * g protein) | – | 200 (100–310) nmol/(min * g protein) | 380 (330–440) nmol/(min * g protein) | 0.41 µM | – | Slow | 1.9 µM | 4.3 µM | 1.7 µM | – | 0.27 µM | 0.18 µM | sulfonation rate ([9]; female mouse liver cytosol): Slow
4 | O=c1oc2cc(O)ccc2cc1-c1ccc(O)cc1 [compound 9, 3-(4-hydroxyphenyl)-7-hydroxycoumarin] | 41 (26–56) nmol/(min * g protein) | – | – | – | 160 (130–190) nmol/(min * g protein) | – | – | – | 45 (30–62) nmol/(min * g protein) | 88 (65–120) nmol/(min * g protein) | 1.27 µM | – | – | – | – | 0.95 µM | highest | 0.051 µM | – | sulfonation rate ([3]; 10 μM substrate): Slow; Km [16]: 0.46 µM; intrinsic clearance relative to the highest intrinsic clearance value [14]: > 70%
5 | O=c1oc2cc(O)ccc2cc1-c1cccnc1 [compound 13, 3-(4-pyridin-3-yl)-7-hydroxycoumarin] | 80 (0–230) nmol/(min * g protein) | efficiently | – | 4.3 µM | 160 (110–200) nmol/(min * g protein) | 59 (53–71) nmol/(min * g protein) | 24 (17–31) nmol/(min * g protein) | Slow | 120 (100–210) nmol/(min * g protein) | 360 (330–430) nmol/(min * g protein) | – | – | – | – | – | – | – | – | – | sulfonation rate ([1]; 10 μM substrate): Slow; Km [2]: 10 µM; Km [4]: 2.3 µM; Km [6]: 3.3 µM; Km [7]: 6.6 3.7–6.8) μM; Km [8]: 6.8 µM; Km [12]: 4 µM
6 | COc1cc2ccc(=O)oc2cc1O [compound 3, 6-methoxy-7-hydroxycoumarin] | 260 (240–290) nmol/(min * g protein) | – | 540 (510–570) nmol/(min * g protein) | no MM | No MM | 155 (6–300) nmol/(min * g protein) | 15 (10–20) nmol/(min * g protein) | – | 160 (110–220) nmol/(min * g protein) | 420 (390–450) nmol/(min * g protein) | 0.13 µM | – | – | 3.5 µM | 0.11 µM | 0.99 µM | – | 0.22 µM | – | Km [22]: 0.65 µM; intrinsic clearance (Vmax/Km) [6]: highest
7 | Cc1ccc(-c2cc3ccc(O)cc3oc2=O)cc1 [compound 8, 3-(4-methylphenyl)-7-hydroxycoumarin] | 154 (83–230) nmol/(min * g protein) | efficiently | 170 (92–260) nmol/(min * g protein) | – | 26 (16–36) nmol/(min * g protein) | 6.5 (1.6–36) nmol/(min * g protein) | 12 (2–22) nmol/(min * g protein) | Slow | 310 (35–580) nmol/(min * g protein) | 56 (38–77) nmol/(min * g protein) | 5.3 µM | – | – | 0.27 µM | 2.8 µM | 7.3 µM | – | 0.17 µM | – | Km [21]: 0.36 µM; sulfonation rate [23]: highest sulfonation rates
8 | CN(C)c1ccc(-c2cc3ccc(O)cc3oc2=O)cc1 [compound 12, 3-(4-dimethylaminophenyl)-7-hydroxycoumarin] | 440 (360–570) nmol/(min * g protein) | – | 520 (280–790) nmol/(min * g protein) | – | 230 (64–540) nmol/(min * g protein) | 180 (75–320) nmol/(min * g protein) | 210 (140–290) nmol/(min * g protein) | – | 290 (90–560) nmol/(min * g protein) | 600 (330–970) nmol/(min * g protein) | 0.89 µM | – | – | 0.39 µM | 2.8 µM | 0.67 µM | highest | 0.44 µM | – | Km [21]: 0.67 µM; Km [16]: 0.49 µM; sulfonation rate [23]: highest sulfonation rates; intrinsic clearance (Vmax/Km), similarity between species ([23]; compared with other 7-hydroxycoumarin derivatives): more similar between species
9 | Cc1c(C)c2ccc(O)c(C)c2oc1=O [compound 7, 3,4,8-trimethyl-7-hydroxycoumarin] | 300 (250–350) nmol/(min * g protein) | efficiently | 440 (170–710) nmol/(min * g protein) | – | 11 (6.8–14) nmol/(min * g protein) | 65 (54–76) nmol/(min * g protein) | 59 (28–91) nmol/(min * g protein) | – | No MM | 1300 (0–5200) nmol/(min * g protein) | 0.71 µM | 0.11 µM | Slow | 0.65 µM | 2.1 µM | – | – | 4.3 µM | 0.8 µM | –
10 | CCc1c(C)c2ccc(O)c(C)c2oc1=O [compound 6, 3-ethyl-4,8-dimethyl-7-hydroxycoumarin] | 280 (190–370) nmol/(min * g protein) | – | 130 (73–180) nmol/(min * g protein) | – | 14 (11–17) nmol/(min * g protein) | 99 (74–130) nmol/(min * g protein) | 46 (22–69) nmol/(min * g protein) | – | 280 (200–350) nmol/(min * g protein) | 630 (280–980) nmol/(min * g protein) | 0.48 µM | 0.14 µM | – | 0.51 µM | 1.8 µM | 1.7 µM | highest | 0.38 µM | 0.99 µM | intrinsic clearance relative to the highest intrinsic clearance value [14]: > 70%; sulfonation rate ([14]; dog liver cytosol, 10 μM substrate): Slow
